Data published in the supplement of paper PMC11061612.

Key:
Experiment in all cases: combination Emax (second highest fraction inhibited in the dose matrix, 72 h); higher = more inhibition; extreme values may be limits of the assay
GAMG (Glioblastoma) = tested on: GAMG (Glioblastoma)
Summary of the method: (§1)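 Cell lines grown in DMEM/F12 or RPMI with 10% FBS were plated in 1536-well plates and held 24 hours at 37°C, 5% CO2 before 72 hours of exposure to two-drug dose matrices, with DMSO typically at 0.2%. CellTiter-Glo 2.0 luminescence gave viability, which was converted to inhibition. Vehicle wells were set to 0 and blank wells to 1. Combination Emax is the second-highest inhibition in the matrix, and Bliss excess is the observed combination effect minus the expected EA + EB − EA·EB, where EA and EB are the single-agent effects.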

KS-1 (Glioblastoma) = tested on: KS-1 (Glioblastoma)
Summary of the method: as §1

[1] = tested on: TGBC1TKB (Biliary Tract Carcinoma)
Summary of the method: as §1

[2] = tested on: YAPC (Pancreatic Carcinoma)
Summary of the method: as §1

[3] = tested on: ALL-PO (B-Lymphoblastic Leukemia)
Summary of the method: as §1

[4] = tested on: BFTC-909 (Kidney Carcinoma)
Summary of the method: as §1

[5] = tested on: Hs-746T (Gastric Carcinoma)
Summary of the method: as §1

[6] = tested on: L-428 (Hodgkin's Lymphoma)
Summary of the method: as §1

[7] = tested on: LCLC-97TM1 (Non-Small Cell Lung Carcinoma)
Summary of the method: as §1

[8] = tested on: NCI-H209 (Small Cell Lung Carcinoma)
Summary of the method: as §1

SMILES	combination Emax (GAMG (Glioblastoma))	combination Emax (KS-1 (Glioblastoma))	combination Emax [1]	combination Emax [2]	combination Emax [3]	combination Emax [4]	combination Emax [5]	combination Emax [6]	combination Emax [7]	combination Emax [8]
C=CCn1c(=O)c2cnc(Nc3ccc(N4CCN(C)CC4)cc3)nc2n1-c1cccc(C(C)(C)O)n1 [AZD1775] + CCc1c2c(nc3ccc(O)cc13)-c1cc3c(c(=O)n1C2)COC(=O)[C@]3(O)CC [SN-38] (first compound max 1 µM, partner max 0.3 µM)	0.916	0.52	0.426	0.722						
C=CCn1c(=O)c2cnc(Nc3ccc(N4CCN(C)CC4)cc3)nc2n1-c1cccc(C(C)(C)O)n1 [AZD1775] + Nc1ccn([C@@H]2O[C@H](CO)[C@@H](O)C2(F)F)c(=O)n1 [Gemcitabine] (first compound max 1 µM, partner max 0.3 µM)	0.805	0.5	0.454	0.643						
CN(CCO)CC[C@H](CSc1ccccc1)Nc1ccc(S(=O)(=O)NC(=O)c2ccc(N3CCC([C@@H](O)c4ccccc4-c4ccc(Cl)cc4)CC3)cc2)cc1S(=O)(=O)C(F)(F)F [AZD4320] + C1CN(CCC1(C(=O)N[C@@H](CCO)C2=CC=C(C=C2)Cl)N)C3=NC=NC4=C3C=CN4 [Capivasertib] (first compound max 1 µM, 7x7, partner max 3 µM)	0.407	0.296	0.466	0.0702	0.97	0.346	0.46	0.785	0.335	1
CN(CCO)CC[C@H](CSc1ccccc1)Nc1ccc(S(=O)(=O)NC(=O)c2ccc(N3CCC([C@@H](O)c4ccccc4-c4ccc(Cl)cc4)CC3)cc2)cc1S(=O)(=O)C(F)(F)F [AZD4320] + C=CCn1c(=O)c2cnc(Nc3ccc(N4CCN(C)CC4)cc3)nc2n1-c1cccc(C(C)(C)O)n1 [AZD1775] (first compound max 1 µM, partner max 1 µM)	0.643	0.549	0.508	0.278	1	0.905	0.738	0.983	0.933	1
CN(CCO)CC[C@H](CSc1ccccc1)Nc1ccc(S(=O)(=O)NC(=O)c2ccc(N3CCC([C@@H](O)c4ccccc4-c4ccc(Cl)cc4)CC3)cc2)cc1S(=O)(=O)C(F)(F)F [AZD4320] + CCN(CCO)CCCOc1ccc2c(Nc3cc(CC(=O)Nc4cccc(F)c4)[nH]n3)ncnc2c1 [AZD2811] (first compound max 1 µM, 7x7, partner max 1 µM)	0.845	0.464	0.424	0.0932	1	0.514	0.487	0.847	0.366	1
CN(CCO)CC[C@H](CSc1ccccc1)Nc1ccc(S(=O)(=O)NC(=O)c2ccc(N3CCC([C@@H](O)c4ccccc4-c4ccc(Cl)cc4)CC3)cc2)cc1S(=O)(=O)C(F)(F)F [AZD4320] + CS(=O)(=O)CCNCc1ccc(-c2ccc3ncnc(Nc4ccc(OCc5cccc(F)c5)c(Cl)c4)c3c2)o1 [Lapatinib] (first compound max 1 µM, 7x7, partner max 10 µM)	0.951	0.475	0.58	0.257						
Cc1c2c(nn1C)CSCc1cc(n(C)n1)CSc1cc(c3ccccc3c1)OCCCc1c(C(=O)O)n(C)c3c-2c(Cl)ccc13 [AZD5991] + CC(=O)O[C@H]1C(=O)[C@@]2(C)[C@H]([C@H](OC(=O)c3ccccc3)[C@]3(O)C[C@H](OC(=O)[C@H](O)[C@@H](NC(=O)c4ccccc4)c4ccccc4)C(C)=C1C3(C)C)[C@]1(OC(C)=O)CO[C@@H]1C[C@@H]2O [Paclitaxel] (first compound max 1 µM, 7x7, partner max 3 µM)	0.999	0.582	0.412	0.315						
Cc1c2c(nn1C)CSCc1cc(n(C)n1)CSc1cc(c3ccccc3c1)OCCCc1c(C(=O)O)n(C)c3c-2c(Cl)ccc13 [AZD5991] + CS(=O)(=O)CCNCc1ccc(-c2ccc3ncnc(Nc4ccc(OCc5cccc(F)c5)c(Cl)c4)c3c2)o1 [Lapatinib] (first compound max 1 µM, 7x7, partner max 10 µM)	0.507	0.147		0.186						
C[C@@H](Nc1cc(F)cc(F)c1)c1cc(C(=O)N(C)C)cc2c(=O)cc(N3CCOCC3)oc12 [AZD8186] + C1CN(CCC1(C(=O)N[C@@H](CCO)C2=CC=C(C=C2)Cl)N)C3=NC=NC4=C3C=CN4 [AZD5363] (first compound max 10 µM, 7x7, partner max 10 µM)	0.657	0.458	0.559	0.246						
C[C@@H](Nc1cc(F)cc(F)c1)c1cc(C(=O)N(C)C)cc2c(=O)cc(N3CCOCC3)oc12 [AZD8186] + CC(=O)c1c(C)c2cnc(Nc3ccc(N4CCNCC4)cn3)nc2n(C2CCCC2)c1=O [Palbociclib] (first compound max 10 µM, 7x7, partner max 10 µM)	0.723	0.428	0.534	0.349						
C[C@@H](Oc1cc(-c2cnn(C3CCNCC3)c2)cnc1N)c1c(Cl)ccc(F)c1Cl [Crizotinib] + CC1=C(C(=CC=C1)Cl)NC(=O)C2=CN=C(S2)NC3=CC(=NC(=N3)C)N4CCN(CC4)CCO [Dasatinib] (first compound max 10 µM, 7x7, partner max 2 µM)	0.929	0.848	0.707	0.694						
CS(=O)(=O)CCNCc1ccc(-c2ccc3ncnc(Nc4ccc(OCc5cccc(F)c5)c(Cl)c4)c3c2)o1 [Lapatinib] + Cn1cnc2c(F)c(Nc3ccc(Br)cc3Cl)c(C(=O)NOCCO)cc21 [Selumetinib] (first compound max 10 µM, 7x7, partner max 10 µM)	0.644	0.342	0.288	0.386						
CS(=O)(=O)CCNCc1ccc(-c2ccc3ncnc(Nc4ccc(OCc5cccc(F)c5)c(Cl)c4)c3c2)o1 [Lapatinib] + NC1(c2ccc(-c3nc4ccn5c(=O)[nH]nc5c4cc3-c3ccccc3)cc2)CCC1 [MK-2206] (first compound max 10 µM, 7x7, partner max 10 µM)	0.862	0.403	0.623	0.356		0.941				
O=C(c1cc(Cc2n[nH]c(=O)c3ccccc23)ccc1F)N1CCN(C(=O)C2CC2)CC1 [Olaparib] + CC1(C)CCC(CN2CCN(c3ccc(C(=O)NS(=O)(=O)c4ccc(NCC5CCOCC5)c([N+](=O)[O-])c4)c(Oc4cnc5[nH]ccc5c4)c3)CC2)=C(c2ccc(Cl)cc2)C1 [Venetoclax] (first compound max 10 µM, 7x7, partner max 1 µM)	0.0955	0.0863	0.108	0.081						
O=C(c1cc(Cc2n[nH]c(=O)c3ccccc23)ccc1F)N1CCN(C(=O)C2CC2)CC1 [Olaparib] + COc1nnc2ccc(N3CCC(c4ccc(OCCN5CCN(C)C(=O)[C@H]5C)cc4)CC3)nn12 [AZD5153] (first compound max 10 µM, 7x7, partner max 1 µM)	0.448	0.582	0.24	0.267						
Cc1nc(-c2cn3c(n2)-c2ccc(-c4cnn(C(C)(C)C(N)=O)c4)cc2OCC3)n(C(C)C)n1 [Taselisib] + O=C(Nc1ccc2[nH]nc(-c3ccncc3)c2c1)[C@@H]1CCN(CC(=O)N2CCN(c3ccc(-c4ncccn4)cc3)CC2)C1 [SCH772984] (first compound max 10 µM, 7x7, partner max 5 µM)	0.78	0.677	0.663	0.701						
CC1(C)CCC(CN2CCN(c3ccc(C(=O)NS(=O)(=O)c4ccc(NCC5CCOCC5)c([N+](=O)[O-])c4)c(Oc4cnc5[nH]ccc5c4)c3)CC2)=C(c2ccc(Cl)cc2)C1 [Venetoclax] + CS(=O)(=O)CCNCc1ccc(-c2ccc3ncnc(Nc4ccc(OCc5cccc(F)c5)c(Cl)c4)c3c2)o1 [Lapatinib] (first compound max 1 µM, 7x7, partner max 10 µM)	0.284	0.089	0.134	0.129						
